Measurements reported in US7510845B2, “Assay employing G protein-coupled receptor expressed in dorsal root ganglia” (California Institute of Technology, priority 2000, dated 2009).
“Also recorded” adds a separate entry of the source. One block for each compound: values may come before it. Ends that are not written are not given here.

What was measured:
MAS1 = experiment: Intracellular Ca2+ release assay (Fura-2), MAS1 in HEK-Gα15 cells; type: cell-based; conditions: for Activation of MAS1: HEK-Gα15 cells
MRGA1 [1] = biological target: T1, MRGA1 (Mus musculus, UniProt Q91WW5); experiment: Intracellular Ca2+ release assay (Fura-2), MRGA1-GFP in HEK-Gα15 cells; type: cell-based; conditions: for Calcium response of MRGA1-expressing cells to ligand: HEK-Gα15 cells, ligand 1 μM; for Activation of MrgA1 in dose-response experiments: HEK cells expressing Gα15
T1 construct: cDNAs encoding eight full-length variants of Mrg receptors (mMrgA1-8) are provided; expressed in transfected cells; host or cells: HEK293-Galpha15 (A1) or HEK293 lacking Galpha15 (A4), transient transfection with FuGENE 6
T1 sequence (Q91WW5 1-304): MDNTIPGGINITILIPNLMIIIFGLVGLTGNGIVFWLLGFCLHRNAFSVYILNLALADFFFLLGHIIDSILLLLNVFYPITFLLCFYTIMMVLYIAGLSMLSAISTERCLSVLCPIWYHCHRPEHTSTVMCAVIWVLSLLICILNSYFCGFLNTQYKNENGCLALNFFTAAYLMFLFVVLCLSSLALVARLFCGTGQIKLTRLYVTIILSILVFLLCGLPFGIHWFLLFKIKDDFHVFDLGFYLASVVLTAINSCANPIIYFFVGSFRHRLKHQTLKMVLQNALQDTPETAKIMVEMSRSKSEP
Protocol: (§1) To identify ligands for the Mrg receptors, selected MrgA genes were tested in a calcium release assay. MrgA genes, including MrgA1 and MrgA4, were cloned into a eukaryotic expression vector and transfected into human embryonic kidney (HEK) 293 cells. HEK-293 cells were obtained from the ATCC and cultured in DMEM supplemented with 10% fetal bovine serum. An HEK293-Gα15 cell line stably expressing Gα15 was provided by Aurora Biosciences Corporation and grown on Matrigel™ (growth factor reduced Matrigel, Becton Dickinson, diluted 1:200 with serum-free DMEM)-coated flasks and maintained at 37° C. in DMEM (GibcoBRL) supplemented with 10% heat-inactivated fetal bovine serum, 2 mM L-glutamine, 0.1 mM non-essential amino acids, 1 mM sodium pyruvate, 25 mM HEPES and 3 μg/ml blastcidin-S. For transfection, cells were seeded on Matrigel-coated 35 mm glass-bottom dishes (Bioptech Inc., Butler, Pa.). After 16-24 hr, cells were transfected using FuGENE 6 (Roche).
(§2) To increase the sensitivity of the calcium release assay, in some experiments the MRGA-GFP fusion proteins were expressed in HEK 293 cells modified to express Gα15, which couples GPCRs to a signal transduction pathway leading to the release of intracellular free Ca^2+ (Offermann and Simon J Biol Chem 270: 15175-80 (1995)). This calcium release can be monitored ratiometrically using Fura-2 as a fluorescent indicator dye (Tsien et al. Cell Calcium 6: 145-57 (1985)) (FIGS. 11A-C). This heterologous expression system has been previously used to identify ligands for taste receptors (Chandrashekar et al. Cell 100: 703-11 (2000)).
(§3) Briefly, transfected cells were washed once in Hank's balanced salt solution with 11 mM D-glucose and 10 mM HEPES, pH 7.4 (assay buffer) and loaded with 2 μM Fura-2 AM (Molecular Probes) at room temperature for 90 min, with rotation. Loaded cells were washed twice with assay buffer and placed on a micro-perfusion chamber (Bioptech). The chamber was mounted on top of a Olympus IMT2 inverted microscope, and imaged with an Olympus DPlanApo 40× oil immersion objective lens. Samples were illuminated by a 75 W xenon bulb, and a computer-controlled filter changer (Lambda-10; Shutter Instruments) was used to switch the excitation wavelength. A cooled CCD camera (Photometric) was used in detecting fluorescence. GFP-positive cells within a field were identified using an excitation wavelength of 400 nm, a dichroic 505 nm long-pass filter and an emitter bandpass of 535 nm (Chroma Technology). In the same field, calcium measurements were performed at an excitation wavelength of 340 nm and 380 nm, and an emission wavelength of 510 nm. Agonists were diluted in assay buffer and solution changes accomplished by micro-perfusion pump (Bioptech). Fura-2 fluorescence signals (340 nm, 380 nm and the 340/380 ratio) originating from GFP-positive cells were continuously monitored at 0.4- or 1-second intervals and collected using Axon Imaging Workbench 4.0 software (Axon). Instrument calibration was carried out with standard calcium solutions (Molecular probes) in glass bottom dishes (MatTek Corp.).

MRGA4 [2] = biological target: T2, MRGA4 (Mus musculus, UniProt Q91WW2, A204G); experiment: Intracellular Ca2+ release assay, MRGA4 in HEK cells lacking Gα15; type: cell-based; conditions: ligand 1 μM
T2 construct: cDNAs encoding eight full-length variants of Mrg receptors (mMrgA1-8) are provided; expressed in transfected cells; host or cells: HEK293-Galpha15 (A2) or HEK293 lacking Galpha15 (A5), transient transfection with FuGENE 6
T2 sequence (Q91WW2 9-313 A204G limits assumed): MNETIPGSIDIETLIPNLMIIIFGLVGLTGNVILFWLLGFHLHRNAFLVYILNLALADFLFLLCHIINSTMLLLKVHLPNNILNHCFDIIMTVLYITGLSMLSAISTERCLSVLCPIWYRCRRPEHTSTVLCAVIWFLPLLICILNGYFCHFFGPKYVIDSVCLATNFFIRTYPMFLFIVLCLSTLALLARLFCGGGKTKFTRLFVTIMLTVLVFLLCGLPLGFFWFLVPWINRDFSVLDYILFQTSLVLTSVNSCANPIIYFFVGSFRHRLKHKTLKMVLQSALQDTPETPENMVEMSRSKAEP
Protocol: as §1, with “(Roche). Transfection efficiencies were estimated by visualization of GFP fused to the C-terminus of MrgA1 and A4, and were typically >60%. Fusing GFP to the C-termini of the MrgA coding sequences additionally allowed for visual confirmation of the intracellular distribution of the receptors and their membrane integration in the transfected cells (FIG. 11D).” for “(Roche).”
as §3, with “Corp.). […]” for “Corp.).”

[3] = test system: chronic pain models, including neuropathic pain; conditions: intrathecal injection; several chronic pain models; cited from earlier work
MRGA1 [4] = biological target: T1, MRGA1; experiment: Intracellular Ca2+ release assay, MRGA1 in HEK cells lacking Gα15; type: cell-based; conditions: ligand 1 μM
Protocol: as §1, with “(Roche). Transfection efficiencies were estimated by visualization of GFP fused to the C-terminus of MrgA1 and A4, and were typically >60%. Fusing GFP to the C-termini of the MrgA coding sequences additionally allowed for visual confirmation of the intracellular distribution of the receptors and their membrane integration in the transfected cells (FIG. 11D).” for “(Roche).”
as §3, with “Corp.). […]” for “Corp.).”

MRGA4 [5] = biological target: T2, MRGA4; experiment: Intracellular Ca2+ release assay (Fura-2), MRGA4-GFP in HEK-Gα15 cells; type: cell-based; conditions: HEK cells expressing Gα15
Protocol: To identify ligands for the Mrg receptors, selected MrgA genes were tested in a calcium release assay. MrgA genes, including MrgA1 and MrgA4, were cloned into a eukaryotic expression vector and transfected into human embryonic kidney (HEK) 293 cells. HEK-293 cells were obtained from the ATCC and cultured in DMEM supplemented with 10% fetal bovine serum. […]
as §2, with “This heterologous expression system has been previously used to identify ligands for taste receptors (Chandrashekar et al. Cell 100: 703-11 (2000)).” left out
Briefly, transfected cells were washed once in Hank's balanced salt solution with 11 mM D-glucose and 10 mM HEPES, pH 7.4 (assay buffer) and loaded with 2 μM Fura-2 AM (Molecular Probes) at room temperature for 90 min, with rotation. […] A cooled CCD camera (Photometric) was used in detecting fluorescence. […] Fura-2 fluorescence signals (340 nm, 380 nm and the 340/380 ratio) originating from GFP-positive cells were continuously monitored at 0.4- or 1-second intervals and collected using Axon Imaging Workbench 4.0 software (Axon). […]

Compound: Angiotensin II: peptide hormone previously reported to activate MAS1 (DRVYIHPF; Angiotensin-2; UniProt P01019 25-32, looked up)
- Activation of MAS1 (MAS1): No response was detected

Compound: Angiotensin I: peptide hormone previously reported to activate MAS1 (DRVYIHPFHL; Angiotensin-1; UniProt P01019 25-34, looked up)
- Activation of MAS1 (MAS1): No response was detected

Compound: AGEGLNSQFWSLAAPQRF-NH2 [NPAF]
- Calcium response of MRGA4-expressing cells to ligand (MRGA4 [2]): respond
- Activation of MrgA1 in dose-response experiments (MRGA1 [1]): much less effective
- Calcium response of MRGA1-expressing cells to ligand (MRGA1 [1]): significantly lower
- Antinociceptive effect [3]: long-lasting antinociceptive effects
- Calcium response of MRGA1-expressing cells to ligand (MRGA1 [4]): no response
- EC50 (MAS1; HEK cells, RF-amide ligands, read-out: Relative efficacy of activation of MAS1): > 1 µM
- Activation of MAS1 (MAS1): did not respond well

Compound: RFRP-2: RFamide ligand produced from a different precursor (SAGATANLPLRS; ends and bridges not checked; UniProt Q9HCQ7 101-112, looked up)
- Activation of MrgA4 in dose-response experiments (MRGA4 [5]): Neither receptor showed strong activation
- Activation of MrgA1 in dose-response experiments (MRGA1 [1]): Neither receptor showed strong activation

Compound: NPY: neuropeptide
- Calcium response of MRGA4-expressing cells to ligand (MRGA4 [2]): lost completely
- Calcium response of MRGA1-expressing cells to ligand (MRGA1 [1]): some level of activation; also recorded: strongest responses
- Calcium response of MRGA1-expressing cells to ligand (MRGA1 [4]): lost completely

Compound: RFRP-1: RFamide ligand produced from a different precursor (MPHSFANLPLRF; ends and bridges not checked; UniProt Q9HCQ7 81-92, looked up)
- Activation of MrgA4 in dose-response experiments (MRGA4 [5]): Neither receptor showed strong activation
- Activation of MrgA1 in dose-response experiments (MRGA1 [1]): Neither receptor showed strong activation

Compound: CCCCC[C@H](O)/C=C/[C@H]1[C@H](O)CC(=O)[C@@H]1CCCCCCC(=O)O [Prostaglandin-E1]
- Calcium response of MRGA1-expressing cells to ligand (MRGA1 [1]): only very weakly activated

The next lines start with results.

- Calcium response of MRGA1-expressing cells to ligand (MRGA1 [1]): did not activate
Compound: neurokinin A: peptide hormone

- Calcium response of MRGA1-expressing cells to ligand (MRGA1 [1]): did not activate
Compound: neurokinin B: peptide hormone

- Calcium response of MRGA1-expressing cells to ligand (MRGA1 [1]): weakly activated
Compound: schistoFLRF: RFamide ligand, SEQ ID NO: 115 (PDVDHVFLRF; ends and bridges not checked)

- Calcium response of MRGA1-expressing cells to ligand (MRGA1 [1]): most efficient responses
- Calcium response of MRGA1-expressing cells to ligand (MRGA1 [1]; listed as FMRF): strongest responses
Compound: Phe-Met-Arg-Phe-amide [FMRFamide]

- Calcium response of MRGA4-expressing cells to ligand (MRGA4 [2]): considerably diminished
- Calcium response of MRGA1-expressing cells to ligand (MRGA1 [4]): considerably diminished
Compound: CGRP-II: neuropeptide, calcitonin gene-related peptide
- Calcium response of MRGA1-expressing cells to ligand (MRGA1 [1]): some level of activation; also recorded: strongest responses

- Calcium response of MRGA4-expressing cells to ligand (MRGA4 [2]): considerably diminished
- Calcium response of MRGA1-expressing cells to ligand (MRGA1 [4]): considerably diminished
Compound: SYSMEHFRWGKPVGKKRRPVKVYPNGAEDESAEAFPLEF [ACTH]
- Calcium response of MRGA1-expressing cells to ligand (MRGA1 [1]): some level of activation; also recorded: strongest responses
- Activation of MAS1 (MAS1): Nor did MAS1 respond

- Calcium response of MRGA1-expressing cells to ligand (MRGA1 [1]): only very weakly activated
Compound: CCCCC/C=C\C/C=C\C/C=C\C/C=C\CCCC(=O)O [Arachidonic Acid]
